Reference: US5665724A, “Substituted pyrimidinylaminothiazole derivatives useful as platelet aggregation inhibitors” (Ortho Pharmaceutical Corporation, priority 1995, dated 1997)

Experiments:
[1] = test system: platelets (platelet aggregation); test: Platelet aggregation inhibition (gel-filtered platelets, thrombin or ADP agonist, aggregometer); assay type: cell-based; settings: 37° C.; for inhibition at 50 µM: Platelet, 50 μM compound, three minutes; for IC50: % Inhibition Platelet Aggregation @ 50 μM, read-out: Platelet Aggregation, concentration given in lieu of a percentage (IC50)
Method: The percentage of platelet aggregation is calculated as an increase in light transmission of drug treated platelet concentrate vs control treated platelet concentrate. Blood is obtained from drug free, normal donors and placed into tubes containing 0.13M sodium citrate (two sources are routinely used: platelet concentrate obtained from Biological Specialty Corp., Lansdale, Pa. or whole blood obtained from donors). Platelet rich plasma (PRP) is collected by centrifugation of the concentrate or whole blood at 130×g for 15 minutes at 25° C. The PRP (5 mL) is gel filtered through Sepharose 2B (bed volume 50 mL), and the platelet count is adjusted to 2×10^7 platelets per sample. The following constituents are added to a siliconized cuvette: 250 μL of the concentrated platelet filtrate, 100 μL of Tyrode's buffer (0.14M NaCl, 0.0027M KCl, 0.012M NaHCO3, 0.76 mM Na2 HPO4, 0.0055M glucose and 2 mg/mL BSA pH 7.4), 50 μL of 2 mM calcium and test drug […]. Aggregation is monitored in a dual channel Chrono-log Aggregometer for three minutes following the addition of agonist (thrombin 50 μL of 1 unit/mL, or ADP 50 μL of 100 μM). The final assay volume is 500 μL. The reaction takes place at 37° C. The peak aggregation response is calculated as the increase in light transmission units over a three minute period. The difference of the increase in light transmission between control and drug treated platelets is then expressed as a percent of the nondrug treated controls.

[2] = test system: fibrinogen binding to activated platelets; test: 125I-Fibrinogen binding to activated platelets; settings: thrombin-activated platelets, 125I-fibrinogen 0.15 μM; for % Inhibition Fibrinogen Binding @ 30 μM: 30 μM compound, 10 minutes, room temperature; for IC50: printed in column % Inhibition Fibrinogen Binding @ 30 μM, read-out: Fibrinogen Binding, IC50 (concentration given in lieu of a percentage)
Method: The compounds of the invention as identified above are evaluated for platelet aggregation inhibition activity as indicated by the percentage of non-aggregated platelets which are available for binding in accordance with the following procedure.
^125 I-Fibrinogen binding to activated platelets is a modification of the procedure described by Bennett et al., 1988. Briefly, 40 mL of PRP (obtained from Biological Specialty Corp., Lansdale, Pa.) are centrifuged at 120×g to remove contaminating red cells. Aspirin (50 μM) is added and the PRP is incubated at 37° C. for 20 minutes. The pH of the PRP is adjusted to 6.5 with 3.8% sodium citrate and 0.9 μM of PGE1 is added. Platelets are concentrated by a 300×g centrifugation (10 minutes) and the pellet is resuspended in 4 mL. of Tyrode's buffer. The platelet suspension (4 mL) is gel-filtered through a Sepharose-2B column (50 mL bed volume). The platelet count is adjusted to 1×10^8 platelets per 200 mL. The binding reaction is performed in polystyrene tubes (final volume […]). Reagents are added in the following order: 80 mL of Tyrode's buffer, 50 mL of CaCl2 (final concentration (f.c.) […]) and 50 mL of thrombin (f.c. 0.1 unit/mL). The platelet suspension is then added and the mixture is allowed to incubate at room temperature for 2 minutes. Hirudin (50 mL, f.c. 0.5 unit/mL) is immediately added to prevent the catalytic activity of thrombin. Various concentrations of the compound to be tested […] with the competing radioligand ^125 I-fibrinogen (f.c. of 0.15 μM) are added. The mixture is incubated for 10 minutes at room temperature. To terminate the binding reaction the platelets are sedimented (10,000×g for 3 minutes) through silicone oil (3:1 hi-phenol 550/methyl silicone 200, W. F. Nye, Inc., New Bedford, Mass.), in an Eppendorf centrifuge.
The tips of the centrifuge tubes containing the pelleted platelets are cut off and counted for ^125 I-fibrinogen associated with the stimulated platelets. The amount of platelet radioactivity measured in the presence of nonlabeled fibrinogen (4 mg/mL) is considered the nonspecific binding. All samples are repeated in triplicate.
Data are expressed as a percent at concentrations of 30 μM of specifically bound ^125 I-fibrinogen to the platelets in Table 6 below. Positive percentages of fibrinogen binding indicates higher activity for inhibiting platelet aggregation since only non-aggregated or free platelets are available for fibrinogen binding. Alternatively, a concentration is provided in lieu of a percentage to indicate the IC50 of concentration of compound which provides 50% fibrinogen binding.

Row | Compound | inhibition at 50 µM [1] [%] | % Inhibition Fibrinogen Binding @ 30 μM [2] [%] | IC50 [1] [µM] | IC50 [2] [µM]
1 | CCN(CC)CCCNC(=O)c1cnc(Nc2nc(-c3ccc(C)cc3)cs2)nc1C(F)(F)F [Cmpd 2] | 75 | 12 |  | 
2 | O=C(NCCCn1ccnc1)c1cnc(Nc2nc(-c3cccc(C(F)(F)F)c3)cs2)nc1C(F)(F)F [Cmpd 3] | 55 | 4 |  | 
3 | NCCCNC(=O)c1cnc(Nc2nc(-c3cccc(C(F)(F)F)c3)cs2)nc1C(F)(F)F [Cmpd 4] |  | 50 | 10 | 
4 | COc1ccc(-c2csc(Nc3ncc(C(=O)NCCCN(C)C)c(C(F)(F)F)n3)n2)cc1 [Cmpd 5] | 96 | 47 |  | 
5 | O=C(NCCCNC1CCCCC1)c1cnc(Nc2nc(-c3cccc(C(F)(F)F)c3)cs2)nc1C(F)(F)F [Cmpd 6] |  |  | 15 | 30
6 | O=C(NCCCN1CCCCCC1)c1cnc(Nc2nc(-c3cccc(C(F)(F)F)c3)cs2)nc1C(F)(F)F [Cmpd 7] | 95 | 14 |  | 
7 | O=C(NCCCNC1CCCC1)c1cnc(Nc2nc(-c3cccc(C(F)(F)F)c3)cs2)nc1C(F)(F)F [Cmpd 8] | 85 | 50 |  | 
8 | CCCCNCCCNC(=O)c1cnc(Nc2nc(-c3cccc(C(F)(F)F)c3)cs2)nc1C(F)(F)F [Cmpd 9] | 96 |  |  | 3.4
9 | O=C(NCCCNC1CCCCC1)c1cnc(Nc2nc(-c3cccc(C(F)(F)F)c3)cs2)nc1-c1ccccc1 [Cmpd 10] | 25 | 15 |  | 
10 | O=C(NCCCN1CCCC1=O)c1cnc(Nc2nc(-c3cccc(C(F)(F)F)c3)cs2)nc1C(F)(F)F [Cmpd 11] | 25 | 10 |  | 
11 | CN1CCN(CCCNC(=O)c2cnc(Nc3nc(-c4cccc(C(F)(F)F)c4)cs3)nc2C(F)(F)F)CC1 [Cmpd 12] | 90 | 47 |  | 
12 | O=C(NCCCN1CCCCC1)c1cnc(Nc2nc(-c3cccc(Cl)c3)cs2)nc1C(F)(F)F [Cmpd 13] | 94 | 16 |  | 
13 | O=C(NCCCN1CCCCCC1)c1cnc(Nc2nc(-c3cccc(Cl)c3)cs2)nc1C(F)(F)F [Cmpd 14] | 98 | 15 |  | 
14 | O=C(NCCCNC1CCCCC1)c1cnc(Nc2nc(-c3cccc(Cl)c3)cs2)nc1C(F)(F)F [Cmpd 15] |  | 73 | 14.8 | 
15 | CCCNCCCNC(=O)c1cnc(Nc2nc(-c3cccc(Cl)c3)cs2)nc1C(F)(F)F [Cmpd 16] | 96 | 20 |  | 
16 | CCCCNCCCNC(=O)c1cnc(Nc2nc(-c3ccc(C)cc3)cs2)nc1C(F)(F)F [Cmpd 17] | 36 | 43 |  | 
17 | Cc1sc(Nc2ncc(C(=O)NCCCNC3CCCCC3)c(C(F)(F)F)n2)nc1-c1ccccc1 [Cmpd 18] | 58 | 47 |  | 
